Test results from the METLIN SMRT retention time set (Domingo-Almenara et al. 2019).

Assay: gradient 5% acetonitrile 3 min, to 50% in 2 min, to 85% in 15 min, held 3 min, 100 µL/min
Conditions: column: Zorbax Extend-C18 2.1 x 50 mm; eluents: water / acetonitrile, 0.1% formic acid
Method in brief: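 Using water and acetonitrile that each contained 0.1% formic acid, mixtures of ~100 pure standards were separated at 100 μL/min on a Zorbax Extend-C18 column (2.1 × 50 mm, 1.8 μm). The HPLC fed a quadrupole time-of-flight mass spectrometer working in positive and negative ionization mode, with dead and dwell volumes of 40 μL and 900 μL. Data were acquired over 3 months. Retention time was read from computationally picked adduct peaks after manual inspection of each.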

| RP-LC retention time | Structure (SMILES) |
| --- | --- |
| 1200 s | CCOc1ccc(-c2cc3c(=O)n(Cc4nc(-c5cccc(Br)c5)no4)ccn3n2)cc1 |
| 859 s | Cc1ccc(CN2CCN(CC(=O)NCc3cccnc3)C(=O)C2=O)cc1 |
| 726 s | Cc1cc(F)ccc1NC(=O)Cn1ccc2sccc2c1=O |
| 810 s | COc1ccc(-n2ccn3cc(-c4ccc(Cl)cc4)nc3c2=O)cc1OC |
| 797 s | Cc1ccc(-c2nc3cccc(C)n3c2Nc2ccccc2C)cc1 |
| 1060 s | Cc1sc(NC(=O)Cn2c(=O)oc3ccccc32)nc1-c1ccc(Cl)cc1 |
| 662 s | Cc1c(Cl)cccc1NC(=O)CN1CCc2[nH]c3c(C)cc(F)cc3c(=O)c2C1 |
| 902 s | Cc1ccc(NC(=O)Cn2c(C)cc(-c3nnc(C4CCC4)o3)c2C)cc1C |
| 798 s | Cc1cccc(NC(=O)C2CCN(C(=O)c3ncn4c3COC(c3ccccc3)C4)CC2)c1 (centres undefined) |
| 850 s | O=C(Nc1ccccc1C(F)(F)F)NC1CCN(c2ccc(F)cc2)C1=O (centres undefined) |
| 941 s | Cc1ccc(C(=O)NCc2ccc3c(c2)CCCN3C(=O)C2CCC2)c(C)c1 |
| 843 s | CCOc1cccc(NC2=NS(=O)(=O)c3ccccc32)c1 |
| 722 s | Cc1nc2ccn(Cc3ccco3)c(=O)c2cc1C(=O)NCc1ccc2c(c1)OCO2 |
| 692 s | Cc1ccn2cc(-c3ccc(NC(=O)c4cccc(Br)c4)cc3)nc2n1 |
| 833 s | CC(C)n1cc(S(=O)(=O)Nc2ccc(C#N)cc2)c2cccnc21 |
| 901 s | CCOc1ccc(NC(=O)c2cnc3c(c2)c(=O)n(C)c(=O)n3-c2ccc(OC)cc2)cc1 |
| 803 s | Cc1ccn2cc(-c3ccc(NC(=O)c4ccc(C(C)(C)C)cc4)cc3)nc2n1 |
| 1030 s | CCc1cc(C(=O)Nc2ccc(OC)c(OC)c2)nc2cc(-c3ccco3)nn12 |
| 954 s | COc1ccc(-c2nnc(Cc3nc(-c4ccc(F)cc4)no3)o2)cc1 |
| 1050 s | Cc1nc(C(=O)N2CCC[C@H]2Cc2nnc(-c3ccccc3)o2)c(-c2ccccc2F)s1 |

| RP-LC retention time | Structure (SMILES) |
| --- | --- |
| 1040 s | O=C(Cn1cccc(-c2nc(-c3ccccc3)no2)c1=O)Nc1ccc(Cl)c(C(F)(F)F)c1 |
| 944 s | COc1cc(OC)cc(-c2noc(Cn3cnc4c(oc5ccccc54)c3=O)n2)c1 |
| 780 s | O=C(Cn1c(=O)cc(C(=O)N2CCCC2)c2ccccc21)Nc1cccc(Br)c1 |
| 715 s | Cc1cc(C(=O)N2CCC(c3nc4ccccc4s3)CC2)n(C)n1 |
| 608 s | COc1ccc(C(=O)Nc2c(-c3ccccc3)nc3ccccn23)cc1OC |
| 570 s | CC(C)c1cccc(NC(=O)Cn2ncc3c(N4CCN(c5ccccn5)CC4)ncnc32)c1 |
| 600 s | O=S(=O)(Nc1ccc(-c2cn3ccccc3n2)cc1)c1ccccc1 |
| 727 s | O=C(Nc1cc(F)ccc1F)Nc1cccn2cnnc12 |
| 711 s | Cc1nc(-c2cc3ccccc3nc2N2CCN(c3ccccc3F)CC2)no1 |
| 701 s | Cc1ccn2c(NC(=O)c3c(F)cccc3Cl)c(-c3ccc(F)cc3)nc2c1 |
| 958 s | Cc1ccc(Nc2c(-c3ccc(N(C)C)cc3)nc3cnccn23)cc1Cl |
| 616 s | CC1=NS(=O)(=O)N(C)C=C1C(=O)OCc1ccccc1C |
| 857 s | COc1ccc(CNC(=O)C2CCCN(c3nc4ccsc4c(=O)n3-c3ccc(F)cc3)C2)cc1 (centres undefined) |
| 970 s | CC(C)c1ccc(NC(=O)Cc2csc3nc(-c4ccccc4)cn23)cc1 |
| 720 s | CCn1c(=O)c(C(=O)NCc2ccc(OC)cc2)nc2cccnc21 |
| 776 s | O=C(c1[nH]nc2c1CCc1ccccc1-2)N1CCC(c2noc(-c3cccnc3)n2)C1 (centres undefined) |
| 646 s | CCn1c(N2CCN(C(=O)NCc3ccccc3)CC2)nc2ccccc21 |
| 760 s | O=C(c1ccccc1Br)N1CCN(Cc2noc3ccccc23)CC1 |
| 886 s | COc1ccc(-c2csc(NC(=O)c3sc(C)nc3C)n2)cc1 |

Second part, the compound before the results:

| Structure (SMILES) | RP-LC retention time |
| --- | --- |
| CN1CCN(C(=O)C2CCN(c3nc4ccc(-c5cccs5)nc4s3)CC2)CC1 | 646 s |
| CC(C)n1cnnc1CC1CCN(C(=O)C2CCC2)CC1 | 611 s |
| Fc1ccc(CNc2cc(-n3cccn3)ncn2)cc1 | 830 s |
| COc1ccc(C2C(C(=O)N3CCCCC3)c3cc(OC)c(OC)cc3C(=O)N2C)cc1OC (centres undefined) | 706 s |
| CCCNC(=O)C1CCN(c2ccc(SCC(=O)Nc3ccc(C)c(Cl)c3)nn2)CC1 | 715 s |
| CCn1cnc(S(=O)(=O)N2CCC(C(=O)NCc3ccccc3Cl)CC2)c1 | 720 s |
| COCCNC(=O)Nc1cccn2c(C)nnc12 | 556 s |
| CC1(CNC(=O)c2ccccc2Br)CCOCC1 | 698 s |
| O=C(Cn1nc2n(c1=O)CCCCC2)Nc1cccc(Br)c1 | 757 s |
| CC(C)n1nnc2cc(C(=O)O)ccc21 | 687 s |
| CC(C)N(CC#CCNC(=O)Cc1ccccc1Cl)C(C)C | 566 s |
| CN(C)C(=O)c1ccc2c(c1)nc(CN1CCN(C(=O)COc3ccc(Cl)cc3)CC1)n2C | 640 s |
| CCc1nc(-c2cc(S(=O)(=O)Nc3ccc(F)cc3Cl)c(C)s2)cs1 | 1130 s |
| Cc1nc(-c2cn(C(C)C)c3ncccc23)sc1C(=O)N1CCN(C(C)C)CC1 | 622 s |
| Cn1cc(S(=O)(=O)N2CCC(C(=O)NCc3ccccn3)CC2)cc1C(=O)N1CCCC1 | 583 s |
| CCOC(=O)CSc1nnc(NC(=O)C2CC(=O)N(c3ccc(F)cc3)C2)s1 (centres undefined) | 712 s |
| Cc1cccc(CNC(=O)C2CCc3nc(N4CCOCC4)ncc3C2)c1 (centres undefined) | 723 s |
| CCN1C(=O)c2cc(C(=O)NCc3cccc(C)c3)nn2CC1(C)C(=O)NC1CCCC1 (centres undefined) | 812 s |
| COCCn1cc2c3c(cccc31)CN(C(=O)c1ccc(Cl)cc1)CC2 | 1000 s |
| O=C(c1ccccc1Cl)N1CCN(S(=O)(=O)c2cc3c4c(c2)CCC(=O)N4CCC3)CC1 | 796 s |
| Cc1ccc(NC(=O)C2CCc3nc(N4CCOCC4)ncc3C2)cc1F (centres undefined) | 735 s |
| CN(C)S(=O)(=O)c1ccc(COc2ccc(F)cc2)o1 | 875 s |
| COC(=O)c1ccc(NC(=O)N2[C@H]3CC[C@@H]2c2cnc(-c4ccc(F)cc4)nc2C3)cc1 | 993 s |
| O=C(NC1CC1)c1ccc(OCC2CCN(C(=O)Cc3ccc(F)cc3)CC2)cc1 | 787 s |
| CCCNc1cc(N2CCCC(CCC(=O)N3CCC(COC)CC3)C2)ncn1 (centres undefined) | 649 s |

| Structure (SMILES) | RP-LC retention time |
| --- | --- |
| CS(=O)(=O)N1CCN=C1SCc1ccc(Cl)c(Cl)c1 | 889 s |
| O=C(Cc1cccs1)NC1CCN(C(=O)c2cc(-c3cccs3)[nH]n2)CC1 | 704 s |
| O=C(Cc1cccc(Cl)c1)NC1CCN(c2cc(-c3cccs3)[nH]n2)C1 (centres undefined) | 702 s |
| Cc1noc(-c2ccnc(-n3cnc(C(=O)N(C)C4CCCCC4)c3)c2)n1 | 737 s |
| CC(C(=O)Nc1ccc(Cl)cc1F)C1CCN(C(=O)Nc2ccc(Cl)cc2)CC1 (centres undefined) | 1020 s |
| Cc1cccc(OCC(=O)N2CCN(c3cc(=O)n(C(C)C)c(=O)n3C(C)C)CC2)c1 | 909 s |
| O=C([C@@H]1C[C@H](Oc2ccccc2)CN1C(=O)c1n[nH]c(=O)c2ccccc12)N1CCCC1 | 703 s |
| CC(=O)N1CCCc2cc(S(=O)(=O)CCC(=O)N3CCN(c4cc(C)ccc4C)CC3)ccc21 | 936 s |
| Cc1cccc(Cn2nc3ccc(S(=O)(=O)N4CCCCCC4)cn3c2=O)c1 | 1000 s |
| COc1ccc2[nH]c(=O)c(CCC(=O)O)cc2c1 | 712 s |
| CCc1ccccc1NC(=O)N1CCN(c2cc(C)nc(N3CCCC3)n2)CC1 | 670 s |
| CC(C)N1CCn2cc(S(=O)(=O)Nc3ccc(F)c(F)c3)cc2C1=O | 794 s |
| CCOC(=O)c1c(S(=O)(=O)N2CCC(C(=O)Nc3ccc(C(C)C)cc3)CC2)c(C)n(C)c1C | 1020 s |
| COC(=O)c1ccc(NC(=O)N2CCC(n3cnc4cccnc43)CC2)cc1 | 652 s |
| Cc1nc2ccn(Cc3cccnc3)c(=O)c2cc1C(=O)NC1CCCCC1 | 620 s |
| Cc1ccc(CNC(=O)C2(C)CCCN(C(=O)NC(C)C)C2)cc1 (centres undefined) | 766 s |
| C[C@H]1CCC/C=C/C2C[C@H](O)C[C@H]2[C@H](O)/C=C/C(=O)O1 (some centres undefined) | 732 s |
| Cc1cc(S(=O)(=O)Nc2cccnc2)c(Cl)cc1Cl | 714 s |
| O=C(CC1CCCCC1)Nc1ccc(-c2nnc3n2CCCC3)cc1 | 719 s |
| N#Cc1cccnc1N1CCN(c2ccccn2)CC1 | 590 s |
| CC(CCc1ccccc1)NC(=O)Cn1c(=O)n(C(C)C)c2ccc(S(=O)(=O)N3CCCC3)cc21 (centres undefined) | 932 s |
| CCN1CCN(C(=O)C2CCc3sc(C(=O)N4CCCC4)cc3C2)CC1 (centres undefined) | 580 s |
| COc1ccc(CNC(=O)C2CCCN(c3cnc4nccnc4c3)C2)cc1 (centres undefined) | 676 s |
| CC(C)Cc1nn(-c2ccccc2)cc1CN1CC(=O)NCC12CCCC2 | 720 s |
| CCNc1nc(C)cc(N2CCN(S(=O)(=O)c3ccc(-c4csc(C)n4)s3)CC2)n1 | 733 s |
